Legend:
CCK-B receptor = molecular target: T1, CCK-B receptor (Rattus norvegicus, UniProt P30553); assay: Binding action upon CCK-B receptor ([125I]BH.CCK-8, rat whole brain membrane); design: species or system SD rat; conditions: [125I]BH.CCK-8, 25° C., 120 min, pH 6.5
T1 construct: the whole brain was immediately excised from each of the cut heads and homogenized; from tissue; host or cells: SD rat whole brain, membrane preparation
Procedure: Measurement of the binding action upon CCK-B receptor:
About 100 heads of SD rats were decapitated without anesthesia, the whole brain was immediately excised from each of the cut heads and homogenized in 10-fold volume of 0.32M aqueous solution of sucrose by the use of a Teflon-coated homogenizer, the homogenate thus obtained was centrifuged for ten minutes at 900 g by the use of a cooled centrifuge, and the supernatant was further centrifuged for 15 minutes at 11500 g. The precipitate thus obtained was dispersed in 50 mM Tris-HCl buffer (pH 7.4) containing 0.08% Triton X-100, this suspension was allowed to stand for 30 minutes and again centrifuged for 15 minutes at 11500 g, the precipitate thus obtained was washed twice with 5 mM Tris-HCl buffer and twice with 50 mM Tris-HCl buffer in that order through centrifugal separation, the washed precipitate was suspended in 50 mM Tris-HCl buffer, and the suspension thus obtained was freeze-stored at -80° C., thus giving membrane preparation.
The membrane preparation was molten at room temperature, diluted with 10 mM HEPES buffer (containing 130 mM NaCl, 5 mM MgCl2, 1 mM EGTA and 0.25 mg/ml bacitracin; pH 6.5) and incubated at 25° C. for 120 minutes in the presence of [^125 I]BH.cndot.CCK-8, and B/F separation was performed by suction filtration. Nonspecific binding was determined in the presence of 1 μM CCK-8. The amount of labelled ligand bound to the receptor was measured by the use of a […]; Ki (CCK-B) values were determined from the binding inhibition curve of the test sample, with the maximum amount of labelled ligand bound to the receptor being set as 100%.

[1] = tested on: gastric-acid secretion caused by the stimulus of pentagastrin; assay: Depression of gastric-acid secretion caused by the stimulus of pentagastrin; type: in vivo; conditions: Rattus norvegicus, iv; SD rats, urethane anesthetized, i.v. test drug, pentagastrin 15 μg/kg/hr i.v.
From the text: Measurement of the action of depressing the gastric-acid secretion caused by the stimulus of pentagastrin:
A cannula was inserted into the trachea of a rat anesthetized with urethane (intraperitoneally administered in an amount of 1.25 g/kg), its abdominal wall was incised to expose the gastric and duodenal portions, and a polyethylene cannula was set at the anterior stomach after ligation of the cardia. The duodenum was then subjected to slight section, a polyethylene cannula was inserted from the incised portion toward the stomach, and the pylorus was ligated to fix the cannula.
Physiological saline (with pH adjusted to 7.0) was flown from the anterior stomach toward the pylorus at a speed of 3 ml/min, and the gastric-acid secretion was measured by continuous titration of the flown saline by the use of a pH-stat (AUT-201; product of Toa Electronics, Ltd.). The continuous titration was carried out by using 25 mM caustic soda solution until the pH reached 7.0, and the result was expressed as the amount of gastric acid secreted for every ten minutes (μEq /10 min.). Pentagastrin was intravenously administered at a rate of 15 μg/kg/hr. The secretion of gastric acid increased upon administration of pentagastrin, reaching the maximum level after 60 minutes and stably maintaining this level after that. […]

[2] = tested on: CCK-A receptor vs CCK-B receptor; assay: Selectivity for CCK-B receptor by comparison with binding to CCK-A receptor (rat pancreas membrane, [3H]L-364,718); design: species or system SD rat; conditions: rat pancreas (CCK-A) vs rat brain (CCK-B)
Procedure: Measurement of selectivity for CCK-B receptor by comparison with the binding to CCK-A receptor in rats:
The pancreas of an SD rat was homogenized in 20-fold volume of 50 mM Tris-HCl buffer (pH 7.7) by the use of a Polytrone-type homogenizer, the homogenate was twice centrifuged for 10 minutes at 50000 g by the use of an ultracentrifuge, the precipitate thus obtained was suspended in 40-fold volume of 50 mM Tris-HCl buffer (containing 0.2% BSA, 5 mM MgCl2, 0.1 mg/ml bacitracin and 5 mM DTT; pH 7.7), and the suspension was freeze-stored at -80° C., thus giving membrane preparation.
The membrane preparation was then molten at room temperature, diluted ten times with the buffer and incubated at 37° C. for 30 minutes in the presence of [^3 H]L-364, 718, and B/F separation was performed by suction filtration. Nonspecific binding was determined in the presence of 1 μM L-364, 718. The amount of labelled ligand bound to the receptor was measured by the use of a liquid scintillation counter; Ki (CCK-A) values were determined from the binding inhibition curve of the test sample, with the maximum amount of labelled ligand bound to the receptor being set as 100%.
The Ki (CCK-A)/Ki (CCK-B) value of the present compound can be calculated from the above test. The higher the value of Ki (CCK-A)/Ki (CCK-B), the higher will be the selectivity to the CCK-B receptor.

benzodiazepine receptor = assay: Binding to the benzodiazepine receptor; conditions: even at 10 μM

T1 sequence (P30553 whole entry): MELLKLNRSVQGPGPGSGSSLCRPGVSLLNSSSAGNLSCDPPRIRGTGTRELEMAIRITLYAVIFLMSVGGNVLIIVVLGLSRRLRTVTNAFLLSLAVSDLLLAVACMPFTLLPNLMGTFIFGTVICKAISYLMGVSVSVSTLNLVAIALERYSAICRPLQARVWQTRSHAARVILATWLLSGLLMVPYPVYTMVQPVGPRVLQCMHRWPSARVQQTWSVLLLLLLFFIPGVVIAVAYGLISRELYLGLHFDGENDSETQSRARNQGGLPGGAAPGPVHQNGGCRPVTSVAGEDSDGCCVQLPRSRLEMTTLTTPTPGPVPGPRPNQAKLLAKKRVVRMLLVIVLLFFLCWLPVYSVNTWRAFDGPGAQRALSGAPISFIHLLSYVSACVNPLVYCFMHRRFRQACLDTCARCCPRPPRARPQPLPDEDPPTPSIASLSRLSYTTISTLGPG

## Cc1cccc(NC(=O)NC2N=C(c3ccccc3)c3ccccc3N(CC(=O)c3ccccc3C)C2=O)c1 (stereo not shown) [Example 2, 1-[2,3-dihydro-1-(2'-methylphenacyl)-2-oxo-5-phenyl-1H-1,4-benzodiazepin-3-yl]-3-(3-tolyl)urea]
CCK-B receptor
  Ki: 0.15 nM
[1]
  ED50: 0.03 µmol/kg
[2]
  Ki (CCK-A)/Ki (CCK-B), selectivity for the CCK-B receptor: 1733 fold

## Cc1ccc(C(=O)CN2C(=O)C(NC(=O)Nc3cccc(C)c3)N=C(c3ccccc3)c3ccccc32)cc1 (stereo not shown) [Example 7, 1-[2,3-Dihydro-1-(4'-methylphenacyl)-2-oxo-5-phenyl-1H-1,4-benzodiazepin-3-yl]-3-(3-tolyl)urea]
CCK-B receptor
  Ki: 0.22 nM
[2]
  Ki (CCK-A)/Ki (CCK-B), selectivity for the CCK-B receptor: 864 fold

## Cc1cccc(NC(=O)NC2N=C(c3ccccc3)c3ccccc3N(CC(=O)c3sccc3C)C2=O)c1 (stereo not shown) [Example 13, 1-[2,3-Dihydro-1-(3-methyl-2-thenoyl)methyl-2-oxo-5-phenyl-1H-1,4-benzodiazepin-3-yl]-3-(3-tolyl)urea]
CCK-B receptor
  Ki: 0.16 nM

## Cc1cccc(NC(=O)N[C@@H]2N=C(c3ccccc3)c3ccccc3N(CC(=O)c3ccccc3C)C2=O)c1 [Example 16, (R)-1-[2,3-dihydro-1-(2'-methylphenacyl)-2-oxo-5-phenyl-1H-1,4-benzodiazepin-3-yl]-3-(3-tolyl)urea]
Benzodiazepine receptor
  binding action to the benzodiazepine receptor (in words): no binding action at all

— patent US5541182A, “Benzodiazepine aryl urea derivatives” (Yamanouchi Pharmaceutical Co., Ltd., priority 1990, dated 1996)
